Patent US10849878B2 (OBSHCHESTVO S OGRANICHENNOY OTVETSTVENNOSTYU “NORMOFARM”, priority 2015, dated 2020)

Key:
[1] = tested on: rats; conditions: comparison salts; cited from earlier work
[2] = tested on: rats; assay: Porsolt helplessness test; format: in vivo, rat
[3] = in normal settings; cited from earlier work
[4] = 7 days after the dosing, LiAsc, LiCa 5 mg/kg, phenazepam 0.25 mg
[5] = 7 days after the drug withdrawal, 5 mg/kg
[6] = 28 days after the dosing, LiAsc, LiCa 5 mg/kg, phenazepam 0.25 mg
[7] = 28 days after the drug withdrawal, 5 mg/kg

Q: With NCCCC(=O)O [GABA lithium] as the compound, how does the “LD50, mg/kg in rats” value [1] read?
A: The value was 1800 mg/kg.

Q: Which “LD50, mg/kg in rats” value [1] does the source give for O=C([O-])c1ccccc1.[Li+] [Lithium benzoate] here?
A: The value was 1200 mg/kg.

Q: For [Br-].[Li+] [Lithium bromide], which “LD50, mg/kg in rats” value [1] is on record?
A: Its value is 2200 mg/kg.

Q: Which Adrenalin [2, 4] does the source give for O=C([O-])[O-].[Li+].[Li+] [Lithium carbonate] here?
A: Its Adrenalin is 24.9 ± 9.5 µg/L.

Q: What about the “Duration of activity” value [2, 4] of the same compound?
A: Its value is 100.9 ± 64.9 s.

Q: What about the “Duration of immobility” value [2, 4] of the same compound?
A: Its value is 499.1 ± 53.0 s.

Q: What about the “Eosinophils (Dunger method) in mm^3” value [2, 4] of the same compound?
A: The value was 312.6 ± 68.1 in mm^3.

Q: What about the Noradrenalin [2, 4] of the same compound?
A: Its Noradrenalin is 69.3 ± 35.2 µg/L.

Q: And the “Number of gastric ulcers” value [2, 4]?
A: Its value is 5.9 ± 2.1.

Q: And the Adrenalin [2, 5]?
A: Its Adrenalin is 29.6 ± 13.6 µg/L.

Q: What about the “Duration of activity” value [2, 5] of the same compound?
A: Its value is 91.8 ± 43.9 s.

Q: And the “Duration of immobility” value [2, 5]?
A: Its value is 507.9 ± 101.4 s.

Q: And the “Eosinophils (Dunger method) in mm^3” value [2, 5]?
A: The value was 299.3 ± 93.5 in mm^3.

Q: And the Noradrenalin [2, 5]?
A: The Noradrenalin was 80.6 ± 29.7 µg/L.

Q: And the “Number of gastric ulcers” value [2, 5]?
A: The value was 9.9 ± 3.7.

Q: And the Adrenalin [2, 6]?
A: The Adrenalin was 36.7 ± 9.6 µg/L.

Q: What about the “Duration of activity” value [2, 6] of the same compound?
A: The value was 90.8 ± 67.3 s.

Q: What about the “Duration of immobility” value [2, 6] of the same compound?
A: Its value is 508.9 ± 107.2 s.

Q: And the “Eosinophils (Dunger method) in mm^3” value [2, 6]?
A: Its value is 301.8 ± 102.3 in mm^3.

Q: What about the Noradrenalin [2, 6] of the same compound?
A: The Noradrenalin was 76.83 ± 30.2 µg/L.

Q: And the “Number of gastric ulcers” value [2, 6]?
A: The value was 7.3 ± 2.6.

Q: What about the Adrenalin [2, 7] of the same compound?
A: Its Adrenalin is 37.1 ± 14.7 µg/L.

Q: And the “Duration of activity” value [2, 7]?
A: The value was 93.8 ± 32.7 s.

Q: What about the “Duration of immobility” value [2, 7] of the same compound?
A: The value was 504.4 ± 173.4 s.

Q: What about the “Eosinophils (Dunger method) in mm^3” value [2, 7] of the same compound?
A: The value was 281.2 ± 83.1 in mm^3.

Q: What about the Noradrenalin [2, 7] of the same compound?
A: Its Noradrenalin is 76.34 ± 18.6 µg/L.

Q: And the “Number of gastric ulcers” value [2, 7]?
A: Its value is 10.0 ± 4.8.

Q: Which “LD50, mg/kg in rats” value [1] does the source give for [Cl-].[Li+] [Lithium chloride] here?
A: The value was 970 mg/kg.

Q: With [F-].[Li+] [Lithium fluoride] as the compound, how does the “LD50, mg/kg in rats” value [1] read?
A: The value was 175 mg/kg.

Q: Which “LD50, mg/kg in rats” value [1] does the source give for CC(O)C(=O)[O-].[Li+] (stereo not drawn) [Lithium lactate] here?
A: Its value is 2100 mg/kg.

Q: Which “LD50, mg/kg in rats” value [1] does the source give for [Li+].[O]=[Ta](=[O])[O-] [Lithium metatantalate] here?
A: Its value is 750 mg/kg.

Q: With O=C([O-])c1cccnc1.[Li+] [Lithium nicotinate] as the compound, how does the “LD50, mg/kg in rats” value [1] read?
A: Its value is 2200 mg/kg.

Q: With O=C([O-])CCCO.[Li+] [Lithium oxibutirate] as the compound, how does the “LD50, mg/kg in rats” value [1] read?
A: Its value is 2200 mg/kg.

Q: With O=C([O-])CCC(=O)[O-].[Li+].[Li+] [Lithium succynate] as the compound, how does the “LD50, mg/kg in rats” value [1] read?
A: Its value is 2416 mg/kg.

Q: For O=C1O[C@H]([C@@H](O)CO)C(O)=C1O [ascorbic acid], which plasma concentration [3] is on record?
A: Its plasma concentration is 10000 to 20000 ng/mL.

Q: For O=C1CN=C(c2ccccc2Cl)c2cc(Br)ccc2N1 [phenazepam], which Adrenalin [2, 4] is on record?
A: Its Adrenalin is 6.8 ± 0.65 µg/L.

Q: And the “Duration of activity” value [2, 4]?
A: The value was 426.7 ± 76.4 s.

Q: And the “Duration of immobility” value [2, 4]?
A: Its value is 173.3 ± 22.1 s.

Q: What about the “Eosinophils (Dunger method) in mm^3” value [2, 4] of the same compound?
A: The value was 969.1 ± 42.3 in mm^3.

Q: And the Noradrenalin [2, 4]?
A: Its Noradrenalin is 17.6 ± 1.95 µg/L.

Q: What about the “Number of gastric ulcers” value [2, 4] of the same compound?
A: Its value is 0.4 ± 0.1.

Q: What about the Adrenalin [2, 6] of the same compound?
A: Its Adrenalin is 6.2 ± 0.57 µg/L.

Q: And the “Duration of activity” value [2, 6]?
A: The value was 494.8 ± 60.4 s.

Q: What about the “Duration of immobility” value [2, 6] of the same compound?
A: The value was 105.2 ± 20.1 s.

Q: And the “Eosinophils (Dunger method) in mm^3” value [2, 6]?
A: Its value is 988.1 ± 42.3 in mm^3.

Q: And the Noradrenalin [2, 6]?
A: The Noradrenalin was 16.2 ± 1.1 µg/L.

Q: And the “Number of gastric ulcers” value [2, 6]?
A: Its value is 0.1 ± 0.2.

Q: For Lithium nitrate trihydrate, which “LD50, mg/kg in rats” value [1] is on record?
A: Its value is 1400 mg/kg.
